Holding throughout (format): functional, organism-based
The test system of assay [1] is Mycobacterium tuberculosis. In words: Antitubercular activity against fluoroquinolone-resistant Mycobacterium tuberculosis H37Rv harboring gyrB D94N mutant after 5 days.
The subject of assay [2] is Mycobacterium tuberculosis. In words: Antitubercular activity against isoniazid-resistant Mycobacterium tuberculosis H37Rv INH-R1 harboring katG Y155 mutant after 5 days.
The subject of assay [3] is Mycobacterium tuberculosis. In words: Antitubercular activity against rifampicin-resistant Mycobacterium tuberculosis H37Rv RIF-R2 ATCC 35828 after 5 days. The note with it: H37Rv RIF-R2 ATCC 35828, 120 h.
Assay [4] has as its system Mycobacterium tuberculosis. In words: Antitubercular activity against rifampicin-resistant Mycobacterium tuberculosis H37Rv RIF-R1 harboring rpoB S522L mutant after 5 days.
For assay [5], the system named is Mycobacterium tuberculosis. In words: Antitubercular activity against isoniazid-resistant Mycobacterium tuberculosis INH-R2 ATCC 35822 after 5 days. The note with it: INH-R2 ATCC 35822, 120 h.

Converted amounts (≈) assume the structure as drawn.

Broadly, the IC50 is the point on the concentration scale where inhibition reaches its midpoint. Higher therefore signals lower potency. A word on the IC90: it is the concentration at which the effect reaches the 90% level. A higher IC90 goes with a need for much substance. As usually defined, the MIC is the lowest concentration found to suppress growth. Low readings indicate inhibition by little substance, high ones a need for much substance. Turning to `O=C(Cn1cnc([N+](=O)[O-])n1)Nc1nc(-c2ccc(F)c(F)c2)cs1`, the IC50 in assay [1] amounted to 31 µM; in assay [2], 32 µM; in assay [3], 30 µM; in assay [4], 25 µM; in assay [5], 31 µM. Further, the IC90 in assay [1] was found to be 44 µM; in assay [2] it was 47 µM; in assay [3], 38 µM; in assay [4] it was 40 µM; in assay [5], 45 µM. Further, the MIC in assay [1] turned out to be 48 µM (≈ 17.6 µg/mL); in assay [2], 50 µM (≈ 18.3 µg/mL); in assay [3], 45 µM (≈ 16.5 µg/mL); in assay [4], 39 µM (≈ 14.3 µg/mL); in assay [5] it was 49 µM (≈ 17.9 µg/mL).

For the compound `O=C(Cn1cnc([N+](=O)[O-])n1)Nc1ccc(N2CCCCC2)cc1`, the concentration for half-maximal inhibition (IC50) is 32 µM in assay [1]; 34 µM in assay [2]; 36 µM in assay [3]; 25 µM in assay [4]; 30 µM in assay [5]. For the same compound, the IC90 in assay [1] is 47 µM; in assay [2] it was 53 µM; in assay [3] it was 49 µM; in assay [4], 41 µM; in assay [5], 44 µM. In addition, the MIC in assay [1] was found to be 50 µM (≈ 16.5 µg/mL); in assay [2], 54 µM (≈ 17.8 µg/mL); in assay [3], 51 µM (≈ 16.8 µg/mL); in assay [4], 36 µM (≈ 11.9 µg/mL); in assay [5], 48 µM (≈ 15.9 µg/mL).

Take `O=C(Cn1cnc([N+](=O)[O-])n1)Nc1ccc(Oc2ccccc2)cc1`: the IC50 in assay [1] amounted to 70 µM; in assay [2] it was 73 µM; in assay [3], 55 µM; in assay [4], 70 µM; in assay [5] it was 66 µM. The IC90 in assay [1] turned out to be 130 µM; in assay [2], 130 µM; in assay [3], 170 µM; in assay [4], 150 µM; in assay [5], 110 µM. Also, the MIC was 200 µM (≈ 67.9 µg/mL) in assay [1]; 125 µM (≈ 42.4 µg/mL) in assay [2]; 116 µM (≈ 39.4 µg/mL) in assay [3]; 133 µM (≈ 45.1 µg/mL) in assay [4]; greater than 200 µM in assay [5].

With `O=C(Cn1cnc([N+](=O)[O-])n1)Nc1ccc(Oc2ccc(Cl)cc2)cc1`, the IC50 in assay [1] was determined as 56 µM; in assay [2] it was 54 µM; in assay [3] it was 55 µM; in assay [4] it was 58 µM; in assay [5], 36 µM. For the same compound, the IC90 came out at 84 µM in assay [1]; 76 µM in assay [2]; 150 µM in assay [3]; 91 µM in assay [4]; 54 µM in assay [5]. Also, the MIC in assay [1] is 94 µM (≈ 35.1 µg/mL); in assay [2], 91 µM (≈ 34 µg/mL); in assay [3], 100 µM (≈ 37.4 µg/mL); in assay [4], 98 µM (≈ 36.6 µg/mL); in assay [5], 55 µM (≈ 20.6 µg/mL).

On to `O=C(Cn1cnc([N+](=O)[O-])n1)Nc1cccc(-c2ccccc2)c1`, for which the IC50 in assay [1] stood at 29 µM; in assay [2], 31 µM; in assay [3], 29 µM; in assay [4], 24 µM; in assay [5] it was 26 µM. The IC90 was found to be 39 µM in assay [1]; 43 µM in assay [2]; 33 µM in assay [3]; 40 µM in assay [4]; 31 µM in assay [5]. Moreover, the MIC in assay [1] is 28 µM (≈ 9.05 µg/mL); in assay [2] it was 48 µM (≈ 15.5 µg/mL); in assay [3], 33 µM (≈ 10.7 µg/mL); in assay [4] it was 35 µM (≈ 11.3 µg/mL); in assay [5] it was 28 µM (≈ 9.05 µg/mL).

Turning to `O=C(Cn1cnc([N+](=O)[O-])n1)Nc1ccc(Cc2ccccc2)cc1`, the IC50 in assay [1] is 28 µM; in assay [2] it was 33 µM; in assay [3] it was 34 µM; in assay [4], 27 µM; in assay [5], 29 µM. The IC90 is 32 µM in assay [1]; 47 µM in assay [2]; 44 µM in assay [3]; 40 µM in assay [4]; 37 µM in assay [5]. In addition, the MIC in assay [1] stood at 30 µM (≈ 10.1 µg/mL); in assay [2], 50 µM (≈ 16.9 µg/mL); in assay [3], 48 µM (≈ 16.2 µg/mL); in assay [4], 44 µM (≈ 14.8 µg/mL); in assay [5], 31 µM (≈ 10.5 µg/mL).

In the case of `O=C(Cn1ccnc1[N+](=O)[O-])Nc1ccc(Oc2ccccc2)cc1`, the IC50 in assay [1] amounted to 74 µM; in assay [2] it was 75 µM; in assay [3] it was 110 µM; in assay [4], 84 µM; in assay [5], 80 µM. In addition, the IC90 is greater than 200 µM in assay [1]; 140 µM in assay [2]; greater than 200 µM in assay [3]; greater than 200 µM in assay [4]; greater than 200 µM in assay [5]. Further, the MIC in assay [1], in assay [2], in assay [3], in assay [4] and in assay [5] was greater than 200 µM throughout.

Consider `O=C(Cn1ccnc1[N+](=O)[O-])Nc1ccc(Oc2ccc(Cl)cc2)cc1`, for which the IC50 in assay [1] was greater than 100 µM; in assay [2], greater than 100 µM; in assay [3] it was 56 µM; in assay [4], 48 µM; in assay [5], greater than 100 µM. For the same compound, the IC90 in assay [1], in assay [2], in assay [3], in assay [4] and in assay [5] was greater than 100 µM in each case. Further, the MIC in assay [1], in assay [2], in assay [3], in assay [4] and in assay [5] was greater than 200 µM each time.

As for `O=C(Cn1ccnc1[N+](=O)[O-])Nc1ccc(Oc2ccc(F)cc2)cc1`, the concentration for half-maximal inhibition (IC50) turned out to be 75 µM in assay [1]; 65 µM in assay [2]; 78 µM in assay [3]; 46 µM in assay [4]; 70 µM in assay [5]. The IC90 in assay [1] was 190 µM; in assay [2], greater than 100 µM; in assay [3] it was greater than 200 µM; in assay [4], greater than 100 µM; in assay [5], greater than 100 µM. Besides, the MIC in assay [1] was 200 µM (≈ 71.3 µg/mL); in assay [2] it was greater than 200 µM; in assay [3], greater than 200 µM; in assay [4] it was greater than 200 µM; in assay [5] it was greater than 200 µM.

As for `O=C(Cn1cnc([N+](=O)[O-])n1)N1CCN(Cc2ccc(C(F)(F)F)cc2)CC1`, the IC50 in assay [1] came to 27 µM; in assay [2] it was 32 µM; in assay [3], 32 µM; in assay [4], 21 µM; in assay [5], 26 µM. For the same compound, the IC90 in assay [1] stood at 31 µM; in assay [2], 44 µM; in assay [3], 41 µM; in assay [4], 32 µM; in assay [5], 32 µM. Moreover, the MIC in assay [1] was 28 µM (≈ 11.2 µg/mL); in assay [2], 48 µM (≈ 19.1 µg/mL); in assay [3], 45 µM (≈ 17.9 µg/mL); in assay [4], 31 µM (≈ 12.3 µg/mL); in assay [5], 28 µM (≈ 11.2 µg/mL).

In the case of `O=C(CCn1cnc([N+](=O)[O-])n1)Nc1cccc(OCc2ccccc2)c1`, the IC50 was found to be 3.4 µM in assay [1]; 4.5 µM in assay [2]; 4.1 µM in assay [3]; 2.2 µM in assay [4]; 3.2 µM in assay [5]. In addition, the IC90 in assay [1] turned out to be 6.2 µM; in assay [2], 5.9 µM; in assay [3] it was 5.2 µM; in assay [4] it was 3.7 µM; in assay [5], 5.6 µM. For the same compound, the MIC is 6 µM (≈ 2.2 µg/mL) in assay [1]; 6.2 µM (≈ 2.28 µg/mL) in assay [2]; 5.6 µM (≈ 2.06 µg/mL) in assay [3]; 3.6 µM (≈ 1.32 µg/mL) in assay [4]; 5.7 µM (≈ 2.09 µg/mL) in assay [5].

Consider `O=C(CCn1cnc([N+](=O)[O-])n1)Nc1ccc(Oc2ccccc2)cc1`, for which the IC50 was determined as 32 µM in assay [1]; 38 µM in assay [2]; 29 µM in assay [3]; 28 µM in assay [4]; 26 µM in assay [5]. The IC90 in assay [1] came out at 68 µM; in assay [2], 71 µM; in assay [3] it was 40 µM; in assay [4], 42 µM; in assay [5], 53 µM. In addition, the MIC in assay [1] is 62 µM (≈ 21.9 µg/mL); in assay [2], 59 µM (≈ 20.8 µg/mL); in assay [3], 48 µM (≈ 17 µg/mL); in assay [4] it was 48 µM (≈ 17 µg/mL); in assay [5], 56 µM (≈ 19.8 µg/mL).

In the case of `O=C(CCn1cnc([N+](=O)[O-])n1)Nc1ccc(Oc2ccc(F)cc2)cc1`, the IC50 in assay [1] came to 26 µM; in assay [2], 29 µM; in assay [3], 21 µM; in assay [4], 16 µM; in assay [5], 19 µM. In addition, the IC90 in assay [1] was determined as 48 µM; in assay [2] it was 65 µM; in assay [3], 53 µM; in assay [4] it was 23 µM; in assay [5], 37 µM. Further, the MIC in assay [1] came to 46 µM (≈ 17.1 µg/mL); in assay [2] it was 50 µM (≈ 18.6 µg/mL); in assay [3] it was 58 µM (≈ 21.5 µg/mL); in assay [4] it was 25 µM (≈ 9.28 µg/mL); in assay [5] it was 36 µM (≈ 13.4 µg/mL).

Turning to `O=C(CCn1cnc([N+](=O)[O-])n1)Nc1cccc(-c2ccccc2)c1`, the IC50 came out at 6.8 µM in assay [1]; 8.5 µM in assay [2]; 8.1 µM in assay [3]; 4.1 µM in assay [4]; 6.2 µM in assay [5]. Also, the IC90 in assay [1] is 14 µM; in assay [2], 15 µM; in assay [3], 11 µM; in assay [4], 8 µM; in assay [5] it was 11 µM. In addition, the minimal inhibitory concentration (MIC) in assay [1] came out at 13 µM (≈ 4.39 µg/mL); in assay [2] it was 15 µM (≈ 5.06 µg/mL); in assay [3] it was 12 µM (≈ 4.05 µg/mL); in assay [4], 7.7 µM (≈ 2.6 µg/mL); in assay [5], 10 µM (≈ 3.37 µg/mL).

As to `O=C(CCn1cnc([N+](=O)[O-])n1)Nc1ccc(Oc2ccc(Cl)cc2)cc1`, the IC50 was 24 µM in assay [1]; 25 µM in assay [2]; 17 µM in assay [3]; 15 µM in assay [4]; 18 µM in assay [5]. Besides, the concentration for an effect of 90% (IC90) in assay [1] came to 42 µM; in assay [2] it was 53 µM; in assay [3], 30 µM; in assay [4] it was 22 µM; in assay [5] it was 32 µM. Further, the MIC was 40 µM (≈ 15.5 µg/mL) in assay [1]; 46 µM (≈ 17.8 µg/mL) in assay [2]; 29 µM (≈ 11.2 µg/mL) in assay [3]; 24 µM (≈ 9.31 µg/mL) in assay [4]; 31 µM (≈ 12 µg/mL) in assay [5].

The values are drawn from ChEMBL document CHEMBL4177599, “The antitubercular activity of various nitro(triazole/imidazole)-based compounds” (Bioorg Med Chem, 2017).
